# Like-named read-outs stand apart in the source and are kept apart here.
# Columns and labels:
# human KDR = molecular target: T1, human KDR (Homo sapiens, UniProt P35968); assay: Inhibitory activity against KDR phosphorylation (NIH 3T3 cells transfected with human KDR, VEGF); format: cell-based; settings: VEGF 100 ng/ml
# T1 construct: expressed in transfected cells; host or cells: NIH 3T3 cells
# Procedure: Measurement of Inhibitory Activity Against KDR Phosphorylation
# NIH 3T3 cells (Sawano A et al., Cell Growth & Differentiation, 7, 213–221 (1996)) prepared by transfection of human KDR were cultured in a DMEM medium containing 10% FBS (GIBCO BRL) within a 5% carbon dioxide incubator until 50 to 70% confluent. The harvested cells were inoculated into wells of a collagen-type one-coat 96-well flat-bottom plate, each containing the same medium, in an amount of 1.5×10^4 per well, followed by cultivation at 37° C. overnight. The medium was then replaced by a DMEM medium containing 0.1% FBS. A solution of a test compound in dimethyl sulfoxide was added to each well, and the cultivation was carried out at 37° C. for additional one hr. A human recombinant vascular endothelial growth factor (hereinafter abbreviated to “VEGF”) was added to a concentration of 100 ng/ml, and the stimulation of cells was carried out at 37° C. for 2 min. The medium was removed, the cells were washed with phosphate buffered saline (pH 7.4), and 50 μl of a solubilization buffer (20 mM HEPES (pH 7.4), 150 mM NaCl, 0.2% Triton X-100, 10% glycerol, 5 mM sodium orthovanadylate, 5 mM disodium ethylenediaminetetraacetate, and 2 mM Na4P2O7) was then added thereto. The mixture was shaken at 4° C. for 2 hr to prepare a cell extract.
# An anti-phospho-tyrosine antibody (PY20; Transduction Laboratories) was immobilized on a microplate for ELISA (Maxisorp; NUNC), and the whole quantity of the cell extract was transferred to the wells, and the immobilized antibody was reacted with the phosphorylated protein at 4° C. overnight. After washing, an anti-KDR antibody (Santa Cruz) was allowed to react at room temperature for one hr, and, further, after washing, a peroxidase-labeled anti-rabbit Ig antibody (Amersham) was allowed to react at room temperature for one hr. After washing, a chromophoric substrate for peroxidase (Sumitomo Bakelite Co., Ltd.) was added thereto and was allowed to react at room temperature. After a suitable level of color development, a reaction termination solution was added to stop the reaction, and the absorbance at 450 nm was measured with a microplate reader. The KDR phosphorylation activity for each well was determined by presuming the absorbance with the addition of VEGF and without the addition of the medicament to be 100% KDR phosphorylation activity and the absorbance without the medicament and VEGF to be 0% KDR phosphorylation activity.
# The concentration of the test compound was varied on several levels, the inhibition (%) of KDR phosphorylation was determined for each case, and the concentration of the test compound necessary for inhibiting 50% of KDR phosphorylation (IC50) was calculated.
# c-kit = molecular target: T2, c-kit (Homo sapiens, UniProt P10721); assay: Inhibitory activity against c-kit autophosphorylation (MO7e cells, h-SCF); format: cell-based; settings: for IC50: MO7e cells, read-out: c-kit IC50; for inhibition at 1 µM: Mo7e
# T2 construct: MO7e (human megakaryocytic leukemia cell line) which had been arrested for 20 hr; endogenous in cells; host or cells: MO7e human megakaryocytic leukemia cell line
# T2 sequence (P10721 26-976): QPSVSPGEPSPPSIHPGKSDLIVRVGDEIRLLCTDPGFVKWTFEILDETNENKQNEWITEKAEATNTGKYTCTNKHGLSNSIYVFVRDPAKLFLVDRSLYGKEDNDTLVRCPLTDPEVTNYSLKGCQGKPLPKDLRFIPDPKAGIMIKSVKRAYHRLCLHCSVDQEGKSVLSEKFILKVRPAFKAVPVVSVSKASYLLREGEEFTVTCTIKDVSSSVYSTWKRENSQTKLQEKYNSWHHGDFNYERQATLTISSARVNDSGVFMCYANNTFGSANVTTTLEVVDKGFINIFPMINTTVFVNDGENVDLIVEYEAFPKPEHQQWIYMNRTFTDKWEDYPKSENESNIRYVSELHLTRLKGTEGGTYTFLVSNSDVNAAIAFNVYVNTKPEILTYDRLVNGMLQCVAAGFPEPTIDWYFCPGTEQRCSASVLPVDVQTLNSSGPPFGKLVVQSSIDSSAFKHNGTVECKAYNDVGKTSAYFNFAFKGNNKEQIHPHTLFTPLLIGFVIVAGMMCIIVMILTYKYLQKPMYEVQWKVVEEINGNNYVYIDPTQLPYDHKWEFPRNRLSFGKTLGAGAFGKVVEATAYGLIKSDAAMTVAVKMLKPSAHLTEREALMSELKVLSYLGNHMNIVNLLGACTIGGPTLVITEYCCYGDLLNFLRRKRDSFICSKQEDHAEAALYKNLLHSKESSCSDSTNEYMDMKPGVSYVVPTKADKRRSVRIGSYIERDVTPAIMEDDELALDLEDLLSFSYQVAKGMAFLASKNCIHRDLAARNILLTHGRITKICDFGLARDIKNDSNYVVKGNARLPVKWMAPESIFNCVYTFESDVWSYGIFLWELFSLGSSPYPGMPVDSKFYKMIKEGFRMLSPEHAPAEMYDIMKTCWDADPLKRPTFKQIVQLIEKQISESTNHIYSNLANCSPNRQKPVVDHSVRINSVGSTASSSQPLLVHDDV
# Procedure, shortened: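 First, human megakaryocytic leukemia MO7e cells arrested 20 hr receive compound for one hour. Second, SCF stimulation (50 ng/ml) runs 5 min, after which cells are solubilized. Third, tyrosine-phosphorylated c-kit in the lysate is quantified by sandwich ELISA with absorbance at 450 nm.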
# [1] = system: neointima of balloon-injured left carotid artery; assay: Rat carotid balloon injury model; format: in vivo; settings: po, 336 h, read-out: I/M ratio, inhibition (%)
# Procedure: Rat Carotid Balloon Injury Model
# Wistar male rats ([…]) were anesthetized with pentobarbital anesthesia, the right femoral region was incised from the rats, a Fogaty 2F catheter was inserted through the right femoral artery and was led to the left carotid artery, and abrasion was made three times with an expansion diameter of 2.5 mm.
# The test compound was suspended in 1% cremophore, and the suspension was orally administered at 0.4 ml/100 g B.W. twice a day through an oral probe for rats for 2 weeks from the day before an operation. On the second week after the operation, the rats were sacrificed by ether. The left carotid artery was removed and was fixed in buffered formalin. Sliced preparations embedded in paraffin were stained with HE and were subjected to image analysis for the measurement of the neointima area (I) and media area (M) in the section of injured blood vessal. I/M was calculated as an index for the evaluation of drug efficacy.
# PDGF-Ra = molecular target: T3, PDGF-Ra (Homo sapiens, UniProt P16234); assay: Inhibitory activity against PDGF-Ra phosphorylation by PDGF-AA stimulation using G292; format: cell-based; settings: Pharmacological Test Example 1; > means inhibition at indicated concentration not more than 50%, < and << not less than 50%; read-out: PDGF (E) IC50
# T3 construct: host or cells: G-292 human osteosarcoma cells
# T3 sequence (P16234 24-1089): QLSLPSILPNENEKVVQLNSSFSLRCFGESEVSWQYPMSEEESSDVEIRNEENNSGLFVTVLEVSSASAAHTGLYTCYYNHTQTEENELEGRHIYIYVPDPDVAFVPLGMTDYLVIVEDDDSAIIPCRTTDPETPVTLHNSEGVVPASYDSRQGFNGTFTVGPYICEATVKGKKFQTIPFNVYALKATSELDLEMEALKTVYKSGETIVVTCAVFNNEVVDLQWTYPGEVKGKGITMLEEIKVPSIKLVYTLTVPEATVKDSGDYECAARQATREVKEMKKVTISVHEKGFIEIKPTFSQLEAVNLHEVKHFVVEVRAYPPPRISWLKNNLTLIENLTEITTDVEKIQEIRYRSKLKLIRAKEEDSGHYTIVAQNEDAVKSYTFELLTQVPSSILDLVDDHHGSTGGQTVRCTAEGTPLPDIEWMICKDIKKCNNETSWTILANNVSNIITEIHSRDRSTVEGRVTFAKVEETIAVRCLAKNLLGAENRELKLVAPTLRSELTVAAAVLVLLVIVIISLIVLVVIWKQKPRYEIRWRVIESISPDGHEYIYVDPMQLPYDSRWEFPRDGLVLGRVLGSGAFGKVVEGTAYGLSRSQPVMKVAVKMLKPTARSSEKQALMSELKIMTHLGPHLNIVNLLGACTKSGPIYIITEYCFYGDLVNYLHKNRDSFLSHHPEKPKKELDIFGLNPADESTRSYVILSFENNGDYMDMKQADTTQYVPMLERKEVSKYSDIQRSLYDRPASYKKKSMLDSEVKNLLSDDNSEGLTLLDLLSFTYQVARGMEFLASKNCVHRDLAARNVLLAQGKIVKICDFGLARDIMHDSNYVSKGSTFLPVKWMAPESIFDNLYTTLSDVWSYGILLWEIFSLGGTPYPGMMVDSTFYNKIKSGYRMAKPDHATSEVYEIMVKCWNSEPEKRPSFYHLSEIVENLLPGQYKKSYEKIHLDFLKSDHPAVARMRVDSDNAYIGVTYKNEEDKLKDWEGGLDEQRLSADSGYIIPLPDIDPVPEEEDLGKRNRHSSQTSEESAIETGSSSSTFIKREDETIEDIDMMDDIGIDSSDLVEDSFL
# Procedure, shortened: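 Read-out: A450 from a sandwich ELISA (PY-20 capture, anti-PDGF-Ra detection, peroxidase colour) of lysates from G-292 cells given compound for 1 hr at 37 °C before a 5 min challenge with PDGF-AA at 50 ng/ml.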
# PDGF-R = PDGF-R (Rattus norvegicus, UniProt Q05030); assay: PDGF-R autophosphorylation inhibition screening (dot plotting), vascular smooth muscle cells, PDGF-BB; format: cell-based; settings: for inhibition at 1 µM: figure in parentheses in −( ), at 1000 nM, read-out: PDGF (D) inhibition (%) at 1000 nM; for IC50: PDGF (D) column
# Chain of PDGF-R (Q05030 32-1097): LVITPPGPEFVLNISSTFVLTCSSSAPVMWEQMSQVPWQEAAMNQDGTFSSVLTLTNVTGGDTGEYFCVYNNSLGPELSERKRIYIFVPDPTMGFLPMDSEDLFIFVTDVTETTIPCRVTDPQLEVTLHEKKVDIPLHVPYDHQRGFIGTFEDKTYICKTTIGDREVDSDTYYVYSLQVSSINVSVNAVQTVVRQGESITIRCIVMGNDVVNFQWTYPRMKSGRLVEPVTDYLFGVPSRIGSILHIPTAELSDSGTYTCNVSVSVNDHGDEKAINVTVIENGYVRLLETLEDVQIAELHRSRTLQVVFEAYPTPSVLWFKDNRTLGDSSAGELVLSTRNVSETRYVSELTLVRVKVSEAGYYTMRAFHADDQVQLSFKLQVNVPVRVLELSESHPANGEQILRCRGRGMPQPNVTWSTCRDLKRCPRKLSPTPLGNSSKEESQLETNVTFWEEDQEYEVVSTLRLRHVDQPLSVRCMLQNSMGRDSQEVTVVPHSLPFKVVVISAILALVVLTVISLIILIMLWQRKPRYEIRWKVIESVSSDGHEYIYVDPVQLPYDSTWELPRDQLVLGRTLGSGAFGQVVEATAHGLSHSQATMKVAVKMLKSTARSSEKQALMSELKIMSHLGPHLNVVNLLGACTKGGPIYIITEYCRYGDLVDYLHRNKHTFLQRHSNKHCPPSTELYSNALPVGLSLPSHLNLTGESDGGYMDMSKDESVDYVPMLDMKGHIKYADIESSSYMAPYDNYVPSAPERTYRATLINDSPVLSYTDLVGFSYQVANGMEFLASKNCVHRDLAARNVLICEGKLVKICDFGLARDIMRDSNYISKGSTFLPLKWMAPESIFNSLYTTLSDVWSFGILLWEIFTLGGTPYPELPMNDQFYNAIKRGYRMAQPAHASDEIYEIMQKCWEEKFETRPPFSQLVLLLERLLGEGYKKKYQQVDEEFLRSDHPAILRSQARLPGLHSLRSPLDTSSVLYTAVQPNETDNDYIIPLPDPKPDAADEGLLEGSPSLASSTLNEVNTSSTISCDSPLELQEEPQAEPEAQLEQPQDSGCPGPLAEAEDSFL
# Procedure: PDGF-R Autophosphorylation Inhibition Screening (Dot Plotting)
# Vascular smooth muscle cells (passage 5 to 10) collected from rat thoracic aorta by the explant method were planted at 8×10^3 cells per well in 96-well plates, subject to a serum starvation state, and 24 hr after the plantation then assayed.
# A test compund was added, and the mixture was incubated at 37° C. for one hr. Thereafter, PDGF-BB was added to 50 ng/ml, and the mixture was incubated for 5 min, followed by washing with cold PBS. Lysate buffer (20 μl/well) was then added, SDS buffer ([…]) was added thereto, and 2 μl of the mixture was then spotted on a PDVF membrane.
# Treatment was carried out with anti-mouse IgG which had been labelled with peroxidase after treatment with an anti-phosphotyrosine antibody, followed by development in an ECL color development kit (Amersham). Thereafter, the color intensity was quantitatively determined by image analysis.
# [2] = figure in parentheses in −( ), at 1000 nM
# T1 sequence (P35968 20-1356): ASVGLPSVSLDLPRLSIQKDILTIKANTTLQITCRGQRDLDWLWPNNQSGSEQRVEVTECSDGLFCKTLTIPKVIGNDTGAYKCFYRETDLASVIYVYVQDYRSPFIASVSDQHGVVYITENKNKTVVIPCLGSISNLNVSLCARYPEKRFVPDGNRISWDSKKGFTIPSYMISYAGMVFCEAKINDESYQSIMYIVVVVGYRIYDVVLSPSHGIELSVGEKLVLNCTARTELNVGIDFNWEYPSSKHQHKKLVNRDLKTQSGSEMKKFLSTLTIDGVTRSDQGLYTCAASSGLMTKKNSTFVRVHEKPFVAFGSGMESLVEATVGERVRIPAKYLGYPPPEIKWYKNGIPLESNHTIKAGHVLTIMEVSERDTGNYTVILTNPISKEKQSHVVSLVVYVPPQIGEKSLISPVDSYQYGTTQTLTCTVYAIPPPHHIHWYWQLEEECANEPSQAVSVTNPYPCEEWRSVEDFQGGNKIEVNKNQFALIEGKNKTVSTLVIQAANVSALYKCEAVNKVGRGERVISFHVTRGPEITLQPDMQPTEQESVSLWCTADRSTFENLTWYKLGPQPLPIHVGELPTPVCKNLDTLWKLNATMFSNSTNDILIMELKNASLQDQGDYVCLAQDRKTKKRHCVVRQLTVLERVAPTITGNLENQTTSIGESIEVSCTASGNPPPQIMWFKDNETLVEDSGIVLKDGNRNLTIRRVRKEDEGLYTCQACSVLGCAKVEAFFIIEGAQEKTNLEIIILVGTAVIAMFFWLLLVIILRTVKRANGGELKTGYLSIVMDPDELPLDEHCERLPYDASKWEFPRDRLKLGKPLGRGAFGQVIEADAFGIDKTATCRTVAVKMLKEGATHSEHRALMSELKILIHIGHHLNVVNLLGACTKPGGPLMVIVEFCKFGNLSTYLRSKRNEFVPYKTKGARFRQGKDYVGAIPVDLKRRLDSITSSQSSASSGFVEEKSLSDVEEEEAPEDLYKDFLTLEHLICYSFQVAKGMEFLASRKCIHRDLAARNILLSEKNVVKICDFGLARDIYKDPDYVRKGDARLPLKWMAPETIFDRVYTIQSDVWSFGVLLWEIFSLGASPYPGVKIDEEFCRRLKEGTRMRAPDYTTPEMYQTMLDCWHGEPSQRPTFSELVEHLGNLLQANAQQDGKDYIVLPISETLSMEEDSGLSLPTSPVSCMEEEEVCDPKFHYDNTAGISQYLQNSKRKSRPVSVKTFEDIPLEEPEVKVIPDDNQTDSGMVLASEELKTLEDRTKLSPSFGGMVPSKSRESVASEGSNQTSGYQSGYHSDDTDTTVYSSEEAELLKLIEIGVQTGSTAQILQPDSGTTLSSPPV
inhibition at 1 µM (c-kit; [2]) [%],inhibition at 1 µM (PDGF-R) [%],Compound,other results
–,–,"COc1cc2nccc(Oc3ccc(NC(=O)Oc4ccccc4C)cc3)c2cc1OC [Example 223, 2-Methylphenyl N-{4-[(6,7-dimethoxy-4-quinolyl)oxy]phenyl}carbamate]",IC50 (human KDR): 38 nM; IC50 (c-kit; h-SCF 50 ng/ml): 0.101 µM; inhibition in vivo at 30 mg/kg [1]: 41%
–,–,"COc1cc2nccc(Oc3cc(C)c(NC(=O)OC4CCCCCC4)cc3C)c2cc1OC [Example 287, Cycloheptyl N-{4-[(6,7-dimethoxy-4-quinolyl)oxy]-2,5-dimethylphenyl}carbamate]","IC50 (human KDR): > 1000 nM; IC50 (c-kit; h-SCF 50 ng/ml): 0.228 µM; inhibition in vivo at 30 mg/kg ([1]; in vivo, dose: 30 mg/kg, orally twice a day for 2 weeks, Wistar male rats): 37%; IC50 (PDGF-Ra): 0.013 µM"
10,30,"COc1cc2nccc(Oc3ccc(S(=O)(=O)CCOc4ccc(F)cc4)cc3)c2cc1OC [Example 829, 4-[(6,7-Dimethoxy-4-quinolyl)oxy]phenyl [2-(4-fluorophenoxy)ethyl]sulfone]",–
10,23,"COc1cccc(OCCS(=O)(=O)c2ccc(Oc3ccnc4cc(OC)c(OC)cc34)cc2)c1 [Example 830, 4-[(6,7-Dimethoxy-4-quinolyl)oxy]phenyl [2-(3-methoxyphenoxy)ethyl]sulfone]",–
19,50,"COc1cc2nccc(Oc3ccc(S(=O)(=O)CCOc4ccc(Cl)cc4Cl)cc3)c2cc1OC [Example 831, 2-(2,4-Dichlorophenoxy)ethyl{4-[(6,7-dimethoxy-4-quinolyl)oxy]phenyl}sulfone]",–
21,35,"COc1cc2nccc(Oc3ccc(S(=O)(=O)CCOc4cccc(Cl)c4)cc3)c2cc1OC [Example 832, 2-(3-Chlorophenoxy)ethyl{4-[(6.7-dimethoxy-4-quinolyl)oxy]phenyl}sulfone]",–
1,23,"COc1cc2nccc(Oc3ccc(S(=O)(=O)CCOc4ccc(C)cc4)cc3)c2cc1OC [Example 834, 4-[(6,7-Dimethoxy-4-quinolyl)oxy]phenyl [2-(4-methylphenoxy)ethyl]sulfone]",–
19,10,"COc1cc2nccc(Oc3ccc(S(=O)(=O)CCOc4ccccc4F)cc3)c2cc1OC [Example 837, 4-[(6,7-Dimethoxy-4-quinolyl)oxy]phenyl [2-(2-fluorophenoxy)ethyl]sulfone]",–
30,24,"COc1cc2nccc(Oc3ccc([S+]([O-])CCOc4ccc(F)cc4[N+](=O)[O-])cc3)c2cc1OC (stereo not shown) [Example 839, {4-[(6,7-Dimethoxy-4-quinolyl)oxy]phenyl}[2-(4-fluoro-2-nitrophenoxy)ethyl] sulfoxide]",–
18,34,"CCCCCCCCCCCC(=O)NC(=S)Nc1ccc(Oc2ccnc3cc(OC)c(OC)cc23)cc1 [Example 1072, N-{4-[(6,7-Dimethoxy-4-quinolyl)oxy]phenyl}-N′-dodecanoylthiourea]",–
20,23,"CCCCCCCCCCCCCC(=O)NC(=S)Nc1ccc(Oc2ccnc3cc(OC)c(OC)cc23)cc1 [Example 1073, N-{4-[(6,7-Dimethoxy-4-quinolyl)oxy]phenyl}-N′-tetradecanoylthiourea]",–
31,17,"CCCCCCCCCCCC(=O)NC(=S)Nc1ccc(Oc2ccnc3cc(OC)c(OC)cc23)cc1F [Example 1075, N-{4-[(6,7-Dimethoxy-4-quinolyl)oxy]-2-fluorophenyl}-N′-dodecanoylthiourea]",–
47,50,"COc1cc2nccc(Oc3ccc(NC(=S)NC(=O)c4ccc([N+](=O)[O-])cc4)c(C)c3C)c2cc1OC [Example 1081, N-{4-[(6,7-Dimethoxy-4-quinolyl)oxy]-2,3-dimethylphenyl}-N′-(4-nitrobenzoyl)thiourea]",–
19,48,"COc1cc2nccc(Oc3ccc(NC(=S)NC(=O)c4ccc(Cl)cc4Cl)c(C)c3C)c2cc1OC [Example 1086, N-(2,4-Dichlorobenzoyl)-N′-{4-[(6,7-dimethoxy-4-quinolyl)oxy]-2,3-dimethylphenyl}thiourea]",–
10,15,"COc1cc2nccc(Oc3ccc(NC(=S)NC(=O)c4ccc([N+](=O)[O-])cc4)c(C)c3)c2cc1OC [Example 1092, N-{4-[(6,7-Dimethoxy-4-quinolyl)oxy]-2-methylphenyl}-N′-(4-nitrobenzoyl)thiourea]",–
25,20,"COc1ccc(C(=O)NC(=S)Nc2ccc(Oc3ccnc4cc(OC)c(OC)cc34)cc2C)cc1 [Example 1095, N-{4-[(6,7-Dimethoxy-4-quinolyl)oxy]-2-methylphenyl}-N′-(4-methoxybenzoyl)thiourea]",–
3,30,"COc1cc2nccc(Oc3ccc(NC(=S)NC(=O)c4ccc(C)cc4)c(C)c3)c2cc1OC [Example 1096, N-{4-[(6,7-Dimethoxy-4-quinolyl)oxy]-2-methylphenyl}-N′-(4-methylbenzoyl)thiourea]",–
–,43,"COc1ccc(C(=O)NC(=S)Nc2ccc(Oc3ccnc4cc(OC)c(OC)cc34)cc2F)c(OC)c1 [Example 1123, N-(2,4-Dimethoxybenzoyl)-N′-{4-[(6,7-dimethoxy-4-quinolyl)oxy]-2-fluorophenyl}thiourea]",IC50 (c-kit; h-SCF stimulation): 0.961 µM
–,–,"N-{4-[(6,7-Dimethoxy-4-quinolyl)oxy]-2-fluorophenyl}-N′-(methylamino)urea [Example 611]",IC50 (c-kit; 50 ng/ml h-SCF): 1.07 µM; IC50 (PDGF-R): 0.095 µM
–,–,"{4-[(6,7-Dimethoxy-4-quinolyl)oxy]phenyl}[2-(3-methoxy-4-nitrophenoxy)ethyl] sulfoxide [Example 838]","c-kit inhibition (%) at 1000 nM (c-kit; [2]): −(23) %; IC50 (PDGF-R; > means inhibition at indicated concentration not more than 50%, < not less than 50%): 0.59 µM"

# Source: US7135466B2 (Kirin Beer Kabushiki Kaisha, priority 1999, dated 2006)
